According to ChEMBL document CHEMBL5465560, “Selectivity Literature for EUbOPEN Chemogenomic Library” (2024):

Assays:
[1] = target: Ribosomal protein S6 kinase alpha-2 (Homo sapiens) (UniProt Q15349); experiment: Selectivity interaction (KinomeScan (DiscoverX)) EUB0000695a RPS6KA2; settings: at 100 nM
[2] = target: Serine/threonine-protein kinase SIK1 (Homo sapiens) (UniProt P57059); experiment: Selectivity interaction (KinomeScan (DiscoverX)) EUB0001079a SIK1; settings: at 1 µM
[3] = target: T1, Serine/threonine-protein kinase Chk1 (Homo sapiens) (UniProt O14757); experiment: Selectivity interaction (Kinase panel (Z-LYTE Assay)) EUB0001632a CHEK1; settings: at 10 µM
T1 sequence (whole entry): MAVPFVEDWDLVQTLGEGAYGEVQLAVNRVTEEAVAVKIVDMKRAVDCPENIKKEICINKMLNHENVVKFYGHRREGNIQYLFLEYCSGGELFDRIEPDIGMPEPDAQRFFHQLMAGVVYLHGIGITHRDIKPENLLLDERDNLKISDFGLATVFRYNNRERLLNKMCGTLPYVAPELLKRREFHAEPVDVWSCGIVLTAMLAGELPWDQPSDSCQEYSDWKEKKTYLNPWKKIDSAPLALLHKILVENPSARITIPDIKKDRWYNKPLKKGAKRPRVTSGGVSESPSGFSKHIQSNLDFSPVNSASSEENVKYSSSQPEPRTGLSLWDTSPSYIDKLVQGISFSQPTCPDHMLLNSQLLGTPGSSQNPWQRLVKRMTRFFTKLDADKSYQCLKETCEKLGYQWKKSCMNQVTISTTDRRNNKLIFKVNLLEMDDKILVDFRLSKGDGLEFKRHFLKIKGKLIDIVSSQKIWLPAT

[4] = target: Serine/threonine-protein kinase SIK1 (Homo sapiens) (UniProt P57059); experiment: Selectivity interaction (LanthaScreen Eu Kinase Binding Assay) EUB0001632a SIK1; settings: at 10 µM
[5] = target: T2, Serine/threonine-protein kinase D3 (Homo sapiens) (UniProt O94806); experiment: Selectivity interaction (ActivX KiNativ screen (kinase selectivity in THP-1 cell lysates)) EUB0000639a PRKD3; format: subcellular; settings: lysate, at 1 µM
T2 sequence (whole entry): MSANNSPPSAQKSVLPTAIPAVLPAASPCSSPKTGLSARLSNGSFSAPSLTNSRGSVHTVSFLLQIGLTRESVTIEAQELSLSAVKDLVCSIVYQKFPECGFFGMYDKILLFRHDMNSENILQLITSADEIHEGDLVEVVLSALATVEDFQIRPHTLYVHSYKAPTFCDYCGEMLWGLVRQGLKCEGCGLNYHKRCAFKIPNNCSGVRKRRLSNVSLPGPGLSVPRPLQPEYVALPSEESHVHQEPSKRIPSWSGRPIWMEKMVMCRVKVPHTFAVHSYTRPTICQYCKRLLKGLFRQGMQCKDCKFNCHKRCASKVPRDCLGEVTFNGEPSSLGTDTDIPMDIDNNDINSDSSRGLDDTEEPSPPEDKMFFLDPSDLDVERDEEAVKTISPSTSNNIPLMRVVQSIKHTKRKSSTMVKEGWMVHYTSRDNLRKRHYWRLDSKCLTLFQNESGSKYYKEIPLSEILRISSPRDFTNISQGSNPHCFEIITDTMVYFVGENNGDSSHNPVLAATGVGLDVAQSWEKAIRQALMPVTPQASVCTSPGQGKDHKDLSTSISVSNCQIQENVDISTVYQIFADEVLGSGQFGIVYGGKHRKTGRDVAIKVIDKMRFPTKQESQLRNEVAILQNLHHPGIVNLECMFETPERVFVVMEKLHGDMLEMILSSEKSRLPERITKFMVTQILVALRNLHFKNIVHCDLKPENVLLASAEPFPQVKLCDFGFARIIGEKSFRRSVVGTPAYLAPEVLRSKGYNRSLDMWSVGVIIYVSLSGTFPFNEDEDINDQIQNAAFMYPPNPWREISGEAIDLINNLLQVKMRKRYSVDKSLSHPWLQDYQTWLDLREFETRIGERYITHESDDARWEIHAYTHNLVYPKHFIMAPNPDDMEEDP

[6] = target: Serine/threonine-protein kinase 10 (Homo sapiens) (UniProt O94804); experiment: Selectivity interaction (ActivX KiNativ screen (kinase selectivity in THP-1 cell lysates)) EUB0000639a STK10; format: subcellular; settings: lysate, at 5 µM
[7] = target: T3, Serine/threonine-protein kinase 4 (Homo sapiens) (UniProt Q13043); experiment: Selectivity interaction (Kinase panel (Invitrogen)) EUB0000639a STK4; settings: at 200 nM
T3 sequence (whole entry): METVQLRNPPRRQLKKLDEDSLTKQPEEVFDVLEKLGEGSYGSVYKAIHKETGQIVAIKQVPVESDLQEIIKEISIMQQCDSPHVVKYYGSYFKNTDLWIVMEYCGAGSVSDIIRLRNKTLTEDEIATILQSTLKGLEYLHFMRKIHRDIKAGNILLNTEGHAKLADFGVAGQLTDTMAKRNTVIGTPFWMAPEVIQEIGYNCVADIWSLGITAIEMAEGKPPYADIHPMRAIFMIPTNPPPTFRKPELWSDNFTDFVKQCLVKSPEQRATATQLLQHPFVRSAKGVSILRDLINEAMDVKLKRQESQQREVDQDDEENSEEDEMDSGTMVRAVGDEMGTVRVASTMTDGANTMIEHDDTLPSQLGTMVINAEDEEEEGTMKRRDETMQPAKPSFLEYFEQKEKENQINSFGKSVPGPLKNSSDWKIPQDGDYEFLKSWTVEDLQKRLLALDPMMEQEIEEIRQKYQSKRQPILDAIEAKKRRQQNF

[8] = target: Serine/threonine-protein kinase 24 (Homo sapiens) (UniProt Q9Y6E0); experiment: Selectivity interaction (KinomeScan (DiscoverX)) EUB0000655a STK24; settings: at 10 µM
Chain of Serine/threonine-protein kinase 24 (Homo sapiens) (Q9Y6E0 whole entry, looked up): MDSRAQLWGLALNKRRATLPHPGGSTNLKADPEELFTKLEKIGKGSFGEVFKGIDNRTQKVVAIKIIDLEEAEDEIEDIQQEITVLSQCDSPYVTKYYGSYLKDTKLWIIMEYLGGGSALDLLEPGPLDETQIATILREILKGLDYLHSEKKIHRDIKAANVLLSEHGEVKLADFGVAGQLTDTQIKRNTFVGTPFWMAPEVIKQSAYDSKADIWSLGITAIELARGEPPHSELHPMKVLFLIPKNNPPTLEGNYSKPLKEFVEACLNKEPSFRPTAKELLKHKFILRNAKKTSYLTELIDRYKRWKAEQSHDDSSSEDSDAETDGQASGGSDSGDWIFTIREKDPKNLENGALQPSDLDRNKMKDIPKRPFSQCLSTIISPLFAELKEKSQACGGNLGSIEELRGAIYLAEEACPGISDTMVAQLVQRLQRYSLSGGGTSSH

Chain of Serine/threonine-protein kinase SIK1 (Homo sapiens) (P57059 whole entry): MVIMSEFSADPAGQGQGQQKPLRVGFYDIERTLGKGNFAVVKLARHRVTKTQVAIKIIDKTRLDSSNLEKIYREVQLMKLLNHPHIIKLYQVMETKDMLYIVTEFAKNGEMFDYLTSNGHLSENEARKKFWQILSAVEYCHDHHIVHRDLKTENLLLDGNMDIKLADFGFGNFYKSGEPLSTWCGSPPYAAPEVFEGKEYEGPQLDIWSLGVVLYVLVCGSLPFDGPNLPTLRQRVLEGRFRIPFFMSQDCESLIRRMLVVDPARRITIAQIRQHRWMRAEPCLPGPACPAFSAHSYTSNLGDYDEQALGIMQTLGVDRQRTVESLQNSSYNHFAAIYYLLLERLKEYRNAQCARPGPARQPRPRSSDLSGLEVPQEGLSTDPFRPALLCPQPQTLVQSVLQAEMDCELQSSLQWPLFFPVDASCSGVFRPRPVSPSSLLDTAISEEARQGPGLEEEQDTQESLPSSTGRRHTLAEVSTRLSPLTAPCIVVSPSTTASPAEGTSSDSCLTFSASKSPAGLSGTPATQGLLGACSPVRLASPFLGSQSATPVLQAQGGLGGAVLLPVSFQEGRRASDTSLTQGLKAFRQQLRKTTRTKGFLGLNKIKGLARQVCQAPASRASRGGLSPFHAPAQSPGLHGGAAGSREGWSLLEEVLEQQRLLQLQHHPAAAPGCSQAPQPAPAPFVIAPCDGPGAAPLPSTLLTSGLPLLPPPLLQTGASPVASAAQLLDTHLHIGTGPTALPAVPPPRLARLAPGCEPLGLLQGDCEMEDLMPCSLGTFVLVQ
Chain of Ribosomal protein S6 kinase alpha-2 (Homo sapiens) (Q15349 whole entry): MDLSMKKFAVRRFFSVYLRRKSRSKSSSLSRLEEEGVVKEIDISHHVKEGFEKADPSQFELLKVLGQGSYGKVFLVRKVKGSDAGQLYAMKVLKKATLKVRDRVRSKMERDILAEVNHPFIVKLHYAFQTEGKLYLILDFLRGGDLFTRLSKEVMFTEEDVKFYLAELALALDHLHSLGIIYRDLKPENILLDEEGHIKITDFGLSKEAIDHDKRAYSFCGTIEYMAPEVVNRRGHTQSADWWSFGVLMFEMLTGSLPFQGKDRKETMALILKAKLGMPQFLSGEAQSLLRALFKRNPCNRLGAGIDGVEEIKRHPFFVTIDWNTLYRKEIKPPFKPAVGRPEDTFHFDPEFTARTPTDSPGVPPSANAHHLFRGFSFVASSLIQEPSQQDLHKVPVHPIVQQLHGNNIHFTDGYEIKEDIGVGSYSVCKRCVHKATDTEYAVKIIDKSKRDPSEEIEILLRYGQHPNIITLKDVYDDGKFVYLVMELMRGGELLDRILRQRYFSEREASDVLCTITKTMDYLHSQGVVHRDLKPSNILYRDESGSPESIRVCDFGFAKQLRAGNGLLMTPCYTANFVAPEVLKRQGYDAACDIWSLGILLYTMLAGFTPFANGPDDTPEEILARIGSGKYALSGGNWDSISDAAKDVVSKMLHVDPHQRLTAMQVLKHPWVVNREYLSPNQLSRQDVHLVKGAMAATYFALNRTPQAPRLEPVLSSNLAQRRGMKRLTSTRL
Chain of Serine/threonine-protein kinase 10 (Homo sapiens) (O94804 whole entry, looked up): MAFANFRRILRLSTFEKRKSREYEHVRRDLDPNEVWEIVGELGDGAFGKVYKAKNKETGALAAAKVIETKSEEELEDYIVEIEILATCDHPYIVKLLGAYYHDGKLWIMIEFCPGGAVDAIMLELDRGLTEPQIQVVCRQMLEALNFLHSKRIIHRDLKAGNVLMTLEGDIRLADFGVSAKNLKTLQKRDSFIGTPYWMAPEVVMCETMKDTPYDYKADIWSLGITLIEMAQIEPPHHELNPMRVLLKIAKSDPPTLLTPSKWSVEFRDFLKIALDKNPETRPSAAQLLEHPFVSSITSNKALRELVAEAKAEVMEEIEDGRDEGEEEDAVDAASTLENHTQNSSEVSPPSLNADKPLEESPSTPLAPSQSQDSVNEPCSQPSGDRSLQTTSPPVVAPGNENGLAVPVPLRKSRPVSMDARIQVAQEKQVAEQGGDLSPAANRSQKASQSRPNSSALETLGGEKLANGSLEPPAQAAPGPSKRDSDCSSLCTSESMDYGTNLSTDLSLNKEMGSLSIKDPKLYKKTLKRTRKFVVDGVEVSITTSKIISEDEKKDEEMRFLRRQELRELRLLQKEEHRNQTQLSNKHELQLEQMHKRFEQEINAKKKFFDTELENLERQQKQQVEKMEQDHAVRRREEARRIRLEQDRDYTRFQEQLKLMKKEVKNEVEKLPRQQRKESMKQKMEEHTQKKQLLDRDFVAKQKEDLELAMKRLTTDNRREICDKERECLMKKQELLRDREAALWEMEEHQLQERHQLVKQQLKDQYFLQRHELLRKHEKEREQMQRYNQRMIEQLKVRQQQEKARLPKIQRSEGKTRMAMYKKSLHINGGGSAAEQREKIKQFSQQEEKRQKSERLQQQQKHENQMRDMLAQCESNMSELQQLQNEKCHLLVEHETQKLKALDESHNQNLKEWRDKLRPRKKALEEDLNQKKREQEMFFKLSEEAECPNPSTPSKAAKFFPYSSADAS

Cc1cc(F)c(C(=O)Nc2cccc(-c3nncn3C(C)C)n2)cc1-n1cnc(C2CC2)c1
% of control [1]: 73%

Nc1cnc(N2CCc3cc(S(=O)(=O)Nc4c(F)cc(Cl)cc4F)cc(N4CCCC4=O)c32)nc1 [TP-020n]
% of control [2]: 100%

Cn1cc(-n2cnc3c(NCc4nc5cc(Cl)c(Cl)cc5[nH]4)nc(N4CCOCC4)nc32)cn1
% of control [3]: 37.8%
% of inhibition [4]: -0.976%

CC[C@@H]1[C@H](F)C(=O)N[C@@H]1COc1nccc2cc(C(N)=O)c(OC)cc12 [ZIMLOVISERTIB]
% of inhibition [5]: 1.2%
% of inhibition [6]: -16.6%
% of inhibition [7]: 13.8%

CN(C)CCOc1ccc(-c2nc(-c3ccncc3)c(-c3ccc4c(c3)CC/C4=N\O)[nH]2)cc1
% of control [8]: 100%
